Legend:
HEK293 cells = assay: CellTiter-Glo Luminescent Cell Viability Assay in HEK293 cells; format: cell-based; settings: Homo sapiens, 7 days (168 h) incubation, 3 μM to 0.00015 μM
Text: CellTiter-Glo™ Assay in HEK293 Cells
The CellTiter-Glo™ Luminescent Cell Viability Assay (Promega) is a homogeneous method of determining the number of viable cells in culture based on quantitation of the ATP present, which signals the presence of metabolically active cells.
HEK293 cells (human embryonic kidney cell line transformed by Adenovirus 5 fragments, ATCC-No. CRL 1573) are cultivated in Dulbecco's Modified Eagle Medium (DMEM) with Glutamax™ (Invitrogen, 31966-021), 5% Fetal Calf Serum (FCS, Sigma Cat-No. F4135 (FBS)), 100 Units/ml penicillin/100 μg/ml streptomycin (=Pen/Strep from Invitrogen Cat. No. 15140). For the assay the cells are seeded in 384 well plates, 5000 cells per well, in the same medium. The next day the test compounds are added in various concentrations ranging from 3 μM to 0.00015 μM (10 concentrations, 1:3 diluted). After 7 days the CellTiter-Glo™ assay is done according to the instructions of the manufacturer (CellTiter-Glo™ Luminescent Cell Viability Assay, from Promega). In brief: the cell-plate is equilibrated to room temperature for approximately 30 minutes and than the CellTiter-Glo™ reagent is added. The contents are carefully mixed for 15 minutes to induce cell lysis. After 45 minutes the luminescent signal is measured in Victor 2, (scanning multiwell spectrophotometer, Wallac).
1. day: • Medium: Dulbecco's Modified Eagle Medium (DMEM) with Glutamax™ (Invitrogen, 31966-021), 5% Fetal Calf Serum (FCS, Sigma Cat-No. F4135 (FBS)), Pen/Strep (Invitrogen Cat. No. 15140). • HEK293 (ATCC-No. CRL 1573): 5000 cells in 60 μl per well of 384 well plate (Greiner 781098, white plates) • Incubate 24 h at 37° C., 5% CO2 2. day: Induction (Substance testing):
In general the dilution steeps are 1:3 • a) Add 8 μl of 10 mM stock solution of compound to 72 μl DMSO • b) dilute 9× 1:3 (always 30 μl to 60 μl DMSO) in this DMSO dilution row (results in 10 wells with concentrations from 1000 μM to 0.06 μM) • c) dilute each concentration 1:4.8 (10 μl compound dilution to 38 μl medium) • d) dilute each concentration 1:10 (10 μl compound dilution to 90 μl medium) • e) add 10 μl of every concentration to 60 μl medium in the cell plate • resulting in final concentration of DMSO: 0.3% in every well • and resulting in final concentration of compounds from 3 μM to 0.00015 μM • Incubate 168 h (7 days) at 37° C., 5% CO2
• Add 30 μl CellTiter-Glo™ Reagent/well, • shake 15 minutes at room temperature • incubate further 45 minutes at room temperature without shaking.
• Victor 2 scanning multiwell spectrophotometer (Wallac), Luminescence mode • Determine IC50 with XL-fit (XLfit software (ID Business Solution Ltd., Guilford, Surrey, UK)).

Compound: FC(F)(F)Oc1ccc(/C=C/c2nc(COc3ccc(CCCCn4ccnc4)nn3)co2)cc1 [Example 1, 3-(4-Imidazol-1-yl-butyl)-6-{2-[(E)-2-(4-trifluoromethoxy-phenyl)-vinyl]-oxazol-4-ylmethoxy}-pyridazine]
- IC50 (HEK293 cells): 200 to 2000 nM

Compound: Clc1ccc(/C=C/c2nc(COc3ccc(CCCCn4cncn4)nn3)co2)cc1 [Example 2, 3-{2-[(E)-2-(4-Chloro-phenyl)-vinyl]-oxazol-4-ylmethoxy}-6-(4-[1,2,4]triazol-1-yl-butyl)-pyridazine]
- melting point: 165 to 167 °C
- IC50 (HEK293 cells): 200 to 2000 nM

Compound: FC(F)(F)c1ccc(/C=C/c2nc(COc3ccc(CCCCn4cncn4)nn3)co2)cc1 [Example 3, 3-(4-[1,2,4]Triazol-1-yl-butyl)-6-{2-[(E)-2-(4-trifluoromethyl-phenyl)-vinyl]-oxazol-4-ylmethoxy}-pyridazine]
- melting point: 145 to 146 °C
- IC50 (HEK293 cells): 930 nM

Compound: Fc1cc(C(F)(F)F)ccc1/C=C/c1nc(COc2ccc(CCCCn3cncn3)nn2)co1 [Example 4, 3-{2-[(E)-2-(2-Fluoro-4-trifluoromethyl-phenyl)-vinyl]-oxazol-4-ylmethoxy}-6-(4-[1,2,4]triazol-1-yl-butyl)-pyridazine]
- melting point: 141 to 143 °C
- IC50 (HEK293 cells): 200 to 2000 nM

Compound: FC(F)(F)c1ccc(/C=C/c2nc(COc3cnc(CCCCn4cncn4)cn3)co2)cc1 [Example 5, 2-(4-[1,2,4]Triazol-1-yl-butyl)-5-{2-[(E)-2-(4-trifluoromethyl-phenyl)-vinyl]-oxazol-4-ylmethoxy}-pyrazine]
- melting point: 147 to 148 °C
- IC50 (HEK293 cells): 200 to 2000 nM

Compound: Clc1ccc(/C=C/c2nc(COc3cnc(CCCCn4cncn4)cn3)co2)cc1 [Example 6, 2-{2-[(E)-2-(4-Chloro-phenyl)-vinyl]-oxazol-4-ylmethoxy}-5-(4-[1,2,4]triazol-1-yl-butyl)-pyrazine]
- melting point: 157 to 158 °C
- IC50 (HEK293 cells): 1340 nM

Compound: FC(F)(F)Oc1ccc(/C=C/c2nc(COc3cnc(CCCCn4cncn4)cn3)co2)cc1 [Example 7, 2-(4-[1,2,4]Triazol-1-yl-butyl)-5-{2-[(E)-2-(4-trifluoromethoxy-phenyl)-vinyl]-oxazol-4-ylmethoxy}-pyrazine]
- melting point: 121 to 123 °C

Compound: FC(F)(F)Oc1ccc(/C=C/c2nc(COc3ncc(CCCCn4cccn4)cn3)co2)cc1 [Example 8, 5-(4-Pyrazol-1-yl-butyl)-2-{2-[(E)-2-(4-trifluoromethoxy-phenyl)-vinyl]-oxazol-4-ylmethoxy}-pyrimidine]
- melting point: 143 to 145 °C
- IC50 (HEK293 cells): 200 to 2000 nM

Compound: FC(F)(F)c1ccc(/C=C/c2nc(COc3ncc(CCCCn4cccn4)cn3)co2)cc1 [Example 9, 5-(4-Pyrazol-1-yl-butyl)-2-{2-[(E)-2-(4-trifluoromethyl-phenyl)-vinyl]-oxazol-4-ylmethoxy}-pyrimidine]
- melting point: 156 to 157 °C

Compound: Clc1ccc(/C=C/c2nc(COc3ncc(CCCCn4cccn4)cn3)co2)cc1 [Example 10, 5-(4-Pyrazol-1-yl-butyl)-2-{2-[(E)-2-(4-chloro-phenyl)-vinyl]-oxazol-4-ylmethoxy}-pyrimidine]
- melting point: 149 to 150 °C
- IC50 (HEK293 cells): 200 to 2000 nM
